Reference: patent publication US9902938B2, “Method for inducing exocrine pancreatic cells” (Kyoto University, priority 2012, dated 2018)

Columns and labels:
[1] = tested on: PDX1-positive pancreatic precursor cells; experiment: Induction of exocrine pancreatic cells from human ES cell-derived pancreatic precursor cells (Example 1, anti-amylase immunostaining); assay type: cell-based; settings: human ES cells (KhES3)
Description: Human ES cells (KhES3) received from Kyoto University (Kyoto, Japan) were cultured by a conventional method (Mori H, et al., Biochem Biophys Res Commun. 2006, 345, 926-932). ES cells were cultured on 6-cm dishes to 80%-90% confluency, and then 1 mL of Accutase™ was added to disperse ES cells into single cells.
ES cells dispersed into single cells were induced to differentiate into exocrine pancreatic cells according to protocols shown in FIG. 1. Specifically, the following 5 steps were carried out.
(§1) (Stage 1) ES cells were suspended in a RPMI1640 medium containing 2% B27 and Penicillin/Streptomycin, and then seeded in a matrigel-coated 24-well plate at 250,000/well. 100 ng/ml, Activin A and 1 μM CHIR99021 were added to adjust the amount of the medium to be 0.5 mL/well, and then cells were cultured for 6 days.
(Stage 2-1) The medium was substituted with DMEM containing 50 ng/ml FGF10, 0.25 μM KAAD (3-Keto-N-(aminoethyl-aminocaproyl-dihydro-cinnamoyl))-cyclopamine, 1% L-Glutamin, 2% B27, 50 mU/L Penicillin and 50 μg/L Streptomycin, and then cells were cultured for 1 day.
(Stage 2-2) The medium was substituted with DMEM containing 2 μM retinoic acid, 50 ng/ml FGF10, 0.25 μM KAAD-cyclopamine, 1% L-Glutamin, 2% B27, 50 mU/L Penicillin and 50 μg/L Streptomycin, and then cells were cultured for 2 days.
(Stage 2-3) The medium was substituted with DMEM containing 50 ng/ml FGF10, 300 nM (−)-indolactam V (ILV), 1% L-Glutamin, 2% B27, 50 mU/L Penicillin and 50 μg/L Streptomycin, and then cells were cultured for 4 days.
(Stage 3) The medium was substituted with DMEM containing 1 μM CHAP108 (formula 10), 300 nM ILV, 1% L-Glutamin, 2% B27, 50 mU/L Penicillin and 50 μg/L. Streptomycin, and then cells were cultured for 4 days or 8 days.
The result obtained by culturing cells for 12 days in Stage 3 with the use of the ligand protein for a Notch signal, 0.5 mg/ml hDLL4 or 0.5 mg/ml hJAG1, instead of CHAP108 was compared with the result obtained by culturing cells for 4 days in Stage 3 with the use of CHAP108. […]

[2] = tested on: PDX1-positive pancreatic precursor cells; experiment: Induction of exocrine pancreatic cells by modified protocol (Example 2, immunostaining with anti-Amylase); assay type: cell-based; settings: Stage 3 culture 2 days, 1 μM CHAP108 with 300 nM ILV; human ES cells (KhES3); DMSO negative control 2.8%
Description: ES cells (KhES3) dispersed into single cells were induced to differentiate into exocrine pancreatic cells according to modified protocols shown in FIG. 1. Specifically, the following 5 steps were carried out.
as §1, with “100 ng/mL” for “100 ng/ml,”, “for 4” for “for 6”
(Stage 2-1) The medium was substituted with DMEM containing 50 ng/ml […], 0.25 μM KAAD (3-Keto-N-(aminoethyl-aminocaproyl-dihydro-cinnamoyl))-cyclopamine, 1% L-Glutamin, 2% B27, 50 mU/L Penicillin and 50 μg/L Streptomycin, and then cells were cultured for 1 day.
(Stage 2-2) The medium was substituted with DMEM containing 2 μM retinoic acid, 50 ng/ml FGF10, 0.25 μM KAAD-cyclopamine, 1% L-Glutamin, 2% B27, 50 mU/L Penicillin and […] Streptomycin, and then cells were cultured for 2 days.
(Stage 2-3) The medium was substituted with DMEM containing 50 ng/ml FGF10, 300 nM (−)-indolactam V (ILV), 1% L-Glutamin, 2% B27, 50 mU/L Penicillin and 50 μg/L Streptomycin, and then cells were cultured for 2 days. […]

[3] = Stage 3 culture 12 days, 0.5 mg/ml ligand protein instead of CHAP108

**Q.** “hJAG1: ligand protein for a Notch signal receptor, member of the Jagged family” was tested. Which “efficiency for inducing exocrine pancreatic cells” value (“efficiency” below) [1, 3] did it give?
**A.** 27.0%

**Q.** CCC(C)C1NC(=O)C(Cc2ccc(OC)cc2)NC(=O)C(CCCCCN(O)C=O)NC(=O)C2CCCCN2C1=O (stereo not shown) [CHAP108] was tested. Which “efficiency” value ([1]; Stage 3 culture 4 days, 1 μM CHAP108 with 300 nM ILV) did it give?
**A.** 21.4%

**Q.** And the Amylase positive rate [2]?
**A.** 56.3%

**Q.** “hDLL4: ligand protein for a Notch signal receptor, member of the Delta-like family” was tested. Which “efficiency” value [1, 3] did it give?
**A.** 28.8%
